Experimental data taken from PubChem BioAssay AID1553 (Sanford-Burnham Center for Chemical Genomics, 2009).
Values joined by “and” are separate entries in the source; they are usually repeats but may differ in a detail not shown here. Equal values may be shown once. Active and inactive are the calls of the source.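 The calls were made as follows: active = compounds graded as giving a low, moderate or strong rise in tritium labelling of cell protein versus solvent control; inactive = the rest.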

Tested on: HeLa cells, 3H-mannose incorporation into glycoproteins
Assay: increase in 3H-mannose incorporation into HeLa proteins, late-stage follow-up, orthogonal assay for PMI inhibitor project, HeLa cells (AID 1553);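 also: 1 fold = DMSO treated HeLa control cells; higher fold signals phosphomannose isomerase inhibition routing mannose into glycosylation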
[1] = fold increase, at 25 µM, stronger effect = higher value

SMILES | fold increase 3H incorporation (at 100 µM) | fold increase 3H incorporation [1]
Cc1ccc(N=c2ssnc2Cl)cc1C | 0.8 (inactive) | 0.8
O=c1c2ccccc2sn1-c1ccc2ccccc2c1 | 1.9 | 1.6
Cc1ccc(N=c2ssnc2Cl)c([N+](=O)[O-])c1 | 3.2 | 1.5
CCOc1ccc(-c2nc(=S)[nH][nH]2)cc1 | 0.7 (inactive) | –
COc1ccc(-c2nc(=S)[nH][nH]2)cc1 | 0.8 (inactive) | 1
O=C(O)c1cccc(-n2sc3ccccc3c2=O)c1 | 0.5 (inactive) | 0.5
Clc1ccc(N=c2ssnc2Cl)cc1Cl | 0.1 (inactive) | 0.1
O=C(NCc1ccccc1)c1cccc(-n2sc3ccccc3c2=O)c1 | 1.2 (inactive) | 1.2
COc1ccc(OC)c(N=c2ssnc2Cl)c1 | 1.7 | 2.5
COC(=O)c1cccc(-n2sc3ccccc3c2=O)c1 | 1.7 | 1.5
O=C1c2ccccc2SC1c1ccccc1 (stereo not given) | 1.7 | 2.1
O=c1c2c([N+](=O)[O-])cc([N+](=O)[O-])cc2sn1-c1ccccc1F | 0.9 (inactive) | 0.9
S=c1nc(C2COc3ccccc3O2)[nH][nH]1 (stereo not given) | 0.8 (inactive) | –
Cc1ccnc(-n2sc3ccccc3c2=O)n1 | 1 (inactive) | 0.9
COc1cc(N=c2ssnc2Cl)cc(OC)c1OC | 1.2 (inactive) | 1.1
O=C(O)c1ccccc1NS(=O)(=O)c1cccc(-n2sc3ccccc3c2=O)c1 | 0 (inactive) | 0.2
Nc1ccccc1N=c1ssnc1Cl | 0.9 (inactive) | 0.9
CN(C)S(=O)(=O)c1cccc(-n2sc3ccccc3c2=O)c1 | 1.1 | 1.1
Cc1ccc(C)c(-n2sc3cc(F)ccc3c2=O)c1 | 0.6 | 1.4
Clc1nss/c1=N\c1nccs1 | 1 (inactive) | 1.1
O=c1c2ccccc2sn1-c1cccc(Cl)c1 | 0.6 | 3.4

SMILES | fold increase 3H incorporation (at 100 µM) | fold increase 3H incorporation [1]
Cc1ccc(-n2sc3ccccc3c2=O)cc1S(=O)(=O)N1CCCCC1 | 1.4 | 1.2
O=c1c2ccccc2sn1-c1ccc(Cl)c(S(=O)(=O)N2CCOCC2)c1 | 1.2 (inactive) | 1
O=c1c2c([N+](=O)[O-])cc([N+](=O)[O-])cc2sn1-c1ccc(F)cc1 | 0.8 (inactive) | 0.9
CN(C)c1ccc(N=c2ssnc2Cl)cc1 | 1 (inactive) | 0.8
CN(C)c1cccc(N=c2ssnc2Cl)c1 | 0.2 (inactive) | 0.3
O=c1c2ccccc2sn1-c1nccs1 | 1 (inactive) | 0.9
O=[N+]([O-])c1ccc(N=c2ssnc2Cl)c2ccccc12 | 0.4 | 0.5
Cc1cccc(-n2sc3cc(F)ccc3c2=O)c1C | 0.5 | 2.1
Cc1ccc(C)c(N2Cc3ccccc3C2=O)c1 | 1.2 (inactive) | 1.1
O=c1c2ccccc2sn1-c1cc(S(=O)(=O)N2CCOCC2)ccc1N1CCCC1 | 0.7 (inactive) | 0.7
Cc1cccc(N=c2ssnc2Cl)c1 | 0.7 | 1.6
Oc1ccc(N=c2ssnc2Cl)cc1 | 0.7 (inactive) | 0.8
O=c1c2ccccc2sn1-c1cccc(S(=O)(=O)Nc2ccc(Cl)cc2)c1 | 0.7 (inactive) | 0.4
FC(F)(F)c1ccc(N=c2ssnc2Cl)cc1 | 0.3 | 1.4
Cc1ccc(C)c(-n2sc3ccccc3c2=O)c1 | 1.5 | 1.4
O=[N+]([O-])c1ccc(N=c2ssnc2Cl)c([N+](=O)[O-])c1 | 1.5 | –
CCc1cc(CC)c(N=c2ssnc2Cl)c(CC)c1 | 0.2 | 0.3
S=c1nc(-c2cccc(Cl)c2)[nH][nH]1 | 1 (inactive) | –
Clc1nssc1=Nc1ccccc1 | 1.9 | 1.2
Clc1nssc1=Nc1ccc(Br)cc1 | 0.5 | 3.6
COc1cc(N=c2ssnc2Cl)cc(OC)c1 | 1.9 | 1.1

SMILES | fold increase 3H incorporation (at 100 µM) | fold increase 3H incorporation [1]
Cc1ccc(N=c2ssnc2Cl)cc1[N+](=O)[O-] | 0.2 | 2.1
Cc1cccc(-n2sc3ccccc3c2=O)c1 | 2.3 | 2
COc1cc(-c2nc(=S)[nH][nH]2)cc(OC)c1OC | 0.8 (inactive) | –
O=c1c2ccccc2sn1-c1ccc(F)cc1 | 2.5 | 2.5
S=c1nc(-c2cccc(Br)c2)[nH][nH]1 | 0.9 (inactive) | –
CC(C)(C)c1ccc(N=c2ssnc2Cl)cc1 | 1 (inactive) | 0.7
O=c1c2ccccc2sn1-c1ccccc1 | 1 | 1.1
O=c1c2ccccc2sn1-c1cccc(C(F)(F)F)c1 | 0.7 | 1.2
Cc1ccc(C=Nn2c(-c3ccncc3)n[nH]c2=S)cc1 | 1 (inactive) | –
Cc1ccc(N=c2ssnc2Cl)cc1 | 1.6 | 1.1
O=c1c2c([N+](=O)[O-])cc([N+](=O)[O-])cc2sn1-c1ccc(F)c(Cl)c1 | 0.7 (inactive) | 0.9
Cc1ccc(C)n1-c1nc(=S)[nH][nH]1 | 1 (inactive) | –
S=c1nc(-c2ccccc2Br)[nH][nH]1 | 0.9 (inactive) | –
Cc1ccc(C)c(-n2[nH]c3ccccc3c2=O)c1 | 0.8 (inactive) | 0.9
COc1cccc(-n2sc3ccccc3c2=O)c1 | 1.4 | 0.8
O=c1c2ccccc2sn1-c1cc(S(=O)(=O)N2CCOCC2)ccc1N1CCOCC1 | 0.4 (inactive) | 0.8
Cc1c(Cl)cccc1-n1sc2cc([N+](=O)[O-])cc(OCC(F)(F)F)c2c1=O | 1.1 (inactive) | 1.4
CN(C)c1cccc(-n2sc3ccccc3c2=O)c1 | 1.1 (inactive) | 1.3
Cc1ccc(N=c2ssnc2Cl)nc1 | 0 | 1.2
Clc1nss/c1=N\c1nncs1 | 0.5 (inactive) | 0.9
Clc1cccc(N=c2ssnc2Cl)c1 | 0.4 | 1.7

SMILES | fold increase 3H incorporation (at 100 µM) | fold increase 3H incorporation [1]
OCc1ccccc1N=c1ssnc1Cl | 0.9 (inactive) | 0.9
COc1ccc2c(=O)n(C3CCCC3)sc2c1 | 0 (inactive) | 0.9
Cc1ccc(-n2sc3ccccc3c2=O)cc1 | 1 (inactive) and 0.6 (inactive) | 1.1 and 1.2
COc1ccc(-c2nc(=S)[nH][nH]2)cc1OC | 0.8 (inactive) | –
O=c1c2ccccc2sn1-c1ccc(Cl)cc1 | 0.6 | 3.4
COc1cc(N=c2ssnc2Cl)c(OC)cc1Cl | 1.9 | 1.2
Cc1[nH]n(-c2ccccc2)c(=S)c1C=Nc1cccc([N+](=O)[O-])c1 | 0.7 (inactive) | –
Clc1ccc(Nc2ccccc2N=c2ssnc2Cl)cc1 | 0.4 (inactive) | 0.3
COc1ccc(N=c2ssnc2Cl)cc1OC | 0.1 (inactive) | 0.3
O=c1c2ccccc2sn1-c1cccc(I)c1 | 0.7 | 3.4
CCSc1n[nH]c(=S)s1 | 1 (inactive) | 1
O=C(O)CCn1cc(C=C2C(=O)NC(=S)NC2=O)c(-c2cccc(Br)c2)n1 | 0.8 (inactive) | –
O=c1c2ccc(O)cc2sn1C1CCCC1 | 0.8 (inactive) | 1.1
N#Cc1ccc(N=c2ssnc2Cl)cc1 | 1.1 (inactive) | 1
Cc1ccc(C)c(-n2sc3ccc(F)cc3c2=O)c1 | 1 | 2.9
O=c1c2cc(F)ccc2sn1-c1ccccc1 | 1.6 | 2.3
N#CC1=C2SCN(Cc3ccccc3)CN2C(=O)CC1c1ccc2c(c1)OCO2 (stereo not given) | 1 (inactive) | –
O=c1c2ccc(F)cc2sn1-c1cc(Cl)ccc1Cl | 0.8 (inactive) | 1
COc1cc([N+](=O)[O-])ccc1N=c1ssnc1Cl | 1.4 | 1.3
Clc1ccc(N=c2ssnc2Cl)cc1 | 0.2 (inactive) | 1.1
Clc1nss/c1=N\c1nc2ccccc2s1 | 0.1 (inactive) | 0.7
